Data from PMC4326827, “Biophysical Studies on Interactions and Assembly of Full-size E3 Ubiquitin Ligase” (The Journal of Biological Chemistry, 2014).
*: point of attachment. Biotin = O=C1N[C@H]2[C@H](CS[C@H]2CCCCC(=O)*)N1; Ahx = NCCCCCC(=O)O

Tests used:
[1] = target: T1, SOCS2-EloBC (Homo sapiens, UniProt O14508+Q15369+Q15370); experiment: ITC of GHR peptides and phosphotyrosine into SOCS2-EloBC; assay type: binding; conditions: 298 K
T1 construct: Recombinant human SOCS2 (amino acids 32–198); His6 (cleaved yes); made in house; host or cells: Escherichia coli BL21(DE3)
T1 sequence (O14508 32-198): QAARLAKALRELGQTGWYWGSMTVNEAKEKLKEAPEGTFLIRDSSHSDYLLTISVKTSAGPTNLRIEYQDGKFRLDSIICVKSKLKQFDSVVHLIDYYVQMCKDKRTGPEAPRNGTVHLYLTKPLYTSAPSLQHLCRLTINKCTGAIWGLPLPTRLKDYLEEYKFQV
T1 sequence (Q15369 17-112 partner limits assumed): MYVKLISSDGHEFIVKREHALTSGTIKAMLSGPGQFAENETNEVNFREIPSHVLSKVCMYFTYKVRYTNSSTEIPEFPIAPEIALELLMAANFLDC
T1 sequence (Q15370 whole entry partner, the tested form may be a part): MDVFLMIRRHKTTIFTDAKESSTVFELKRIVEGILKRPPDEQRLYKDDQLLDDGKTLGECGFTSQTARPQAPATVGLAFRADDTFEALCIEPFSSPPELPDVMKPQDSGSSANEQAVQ

[2] = test system: CRL5^SOCS2 (SOCS2, EloB, EloC, Cul5, and Rbx2); experiment: Peptide bead pull-down from K562 cell lysate, CRL5^SOCS2 components; assay type: binding; conditions: immobilized peptide beads, human K562 total cell lysate, 2 h at 4 °C, tandem mass tags MS
Source text: (§1) After washing, bound proteins were eluted with SDS-sample buffer and prepared for tandem mass tags labeling and MS analysis as described previously ([17]).

[3] = target: GHR_pY595-SOCS2-EloBC complex; experiment: ITC of Cul5NTD into GHR_pY595-SOCS2-EloBC (cooperativity); assay type: binding, human; conditions: titration of Cul5NTD into GHR_pY595-SOCS2-EloBC complex
Protocol: Experiments were conducted using an iTC200 microcalorimeter instrument (GE Healthcare). […] Peptides and Tyr(P) were dissolved in the same buffer. Obtained data were analyzed and fitted using the Microcal Origin version 7.0 software package. Binding enthalpy, dissociation constants, and stoichiometry were determined by fitting the data using a one-set-of-site binding model.

[4] = test system: CRL1^FBXO31 E3 ligase (FBXO31, Rbx1, Cul1, and Skp1); experiment: Peptide bead pull-down from K562 cell lysate, CRL1^FBXO31 subunits; assay type: binding; conditions: peptide beads, human K562 cell lysate, 2 h at 4 °C, MS
Source text: as §1

[5] = target: SOCS2 (UniProt O14508); experiment: peptide-bead pull-down from lysate, TMT MS; conditions: reference: GHR_Y595 peptide beads; sites Y595

Molecule: N[C@@H](Cc1ccc(OP(=O)(O)O)cc1)C(=O)O [Tyr(P), phosphotyrosine]
- Kd ([1]; 350 μM peptide or 2 mM Tyr(P) into 30 μM SOCS2-EloBC, 50 mM HEPES, pH 7.5, 250 mM NaCl, 0.5 mM TCEP, one-set-of-site model): 191 µM
- binding affinity weaker than for phosphorylated peptide GHR_pY595 ([1]; ratio of Kd): ~100 -fold

Molecule: Biotin-aminohexanoic acid-PVPDpYTSIHIV-amide [GHR_pY595-beads]
- capture of CRL5^SOCS2 components on peptide beads [2]: endogenous components of CRL5^SOCS2 E3 ligase were only captured by GHR_pY595-beads

Molecule: Cul5NTD: Recombinant human Cul5NTD (N-terminal domain, residues 1–386) expressed in E. coli
- change in Kd or ΔH (cooperativity) [3]: No change in the Kd or ΔH values was observed

Molecule: GHR_Y595-containing beads: biotinylated non-phosphorylated GHR_Y595 peptide immobilized on high capacity Neutravidin beads ({Biotin-Ahx}-PVPDYTSIHIV-NH2; SMILES CC[C@H](C)[C@H](NC(=O)[C@H](CO)NC(=O)[C@@H](NC(=O)[C@H](Cc1ccc(O)cc1)NC(=O)[C@H](CC(=O)O)NC(=O)[C@@H]1CCCN1C(=O)[C@@H](NC(=O)[C@@H]1CCCN1C(=O)CCCCCNC(=O)CCCC[C@@H]1SC[C@@H]2NC(=O)N[C@@H]21)C(C)C)[C@@H](C)O)C(=O)N[C@@H](Cc1c[nH]cn1)C(=O)N[C@H](C(=O)N[C@H](C(N)=O)C(C)C)[C@@H](C)CC)
- capture of CRL5^SOCS2 components on peptide beads [2]: no significant capturing from cell lysates was observed
- capture of CRL1^FBXO31 subunits [4]: significant recruitment of the four CRL1^FBXO31 subunits was also observed

Molecule: growth hormone receptor (GHR) (from UniProt P10912) GHR_pY595 peptide beads
- binding against the reference [5]: gained
